# Tests used:
# UWB1.289 cells = assay: Cell proliferation inhibitory activity in BRCA1/2-mutant or HRD-positive cells (Cell Titer-Glo); format: cell-based; details: UWB1289; UWB1.289 cells, 144 hours after compound treatment, Cell Titer-Glo, 1.5 nM to 10 µM; read-out: GI50 UWB1.289 BRCA1 mut
# Outline: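 UWB1.289 cells (1,000/well) in 50% MEBM/50% RPMI1640 exposed to […], final 1.5 nM to 10 µM, for 144 h at 37 °C. Viable cells measured by CellTiter-Glo luminescence; GI50 calculated.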
# recombinant USP1 protein = biological target: T1, recombinant USP1 protein (Homo sapiens, UniProt O94782, DEL125-138/DEL229-408/DEL608-737); assay: Binding affinity to recombinant USP1 protein by differential scanning fluorimetry; details: compound 100 µM; 0.03 mg/mL USP1 (Δ1-66, Δ125-138, Δ229-408, Δ608-737); Tm with compound minus Tm with DMSO; read-out: ΔTm (°C)
# T1 sequence (O94782 with tags, fused parts or gaps DEL125-138/DEL229-408/DEL608-737): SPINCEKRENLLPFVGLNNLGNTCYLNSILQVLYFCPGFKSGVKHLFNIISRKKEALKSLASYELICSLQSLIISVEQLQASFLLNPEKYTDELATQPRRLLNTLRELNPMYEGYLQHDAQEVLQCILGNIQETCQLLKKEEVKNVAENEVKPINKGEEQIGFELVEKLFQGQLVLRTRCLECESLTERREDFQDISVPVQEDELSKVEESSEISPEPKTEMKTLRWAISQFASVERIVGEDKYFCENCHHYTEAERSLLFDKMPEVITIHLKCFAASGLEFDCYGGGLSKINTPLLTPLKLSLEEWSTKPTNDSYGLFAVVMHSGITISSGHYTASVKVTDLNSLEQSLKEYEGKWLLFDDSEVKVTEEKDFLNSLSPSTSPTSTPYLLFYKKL
# Outline: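 USP1 (Δ1-66, Δ125-138, Δ229-408, Δ608-737) at 0.03 mg/mL with dye in 50 mM Tris-HCl pH 8.0, 150 mM NaCl, 2% glycerol, 1 mM DTT; compounds at 100 µM final. Tm read on real-time PCR instrument; ΔTm = Tm with compound minus Tm with DMSO.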
ΔTm at 100 µM (recombinant USP1 protein) [°C],Structure (SMILES),GI50 (UWB1.289 cells) [nM]
> 5,"COc1ncnc(C2CC2)c1-c1ncc2cc(C(=O)N[C@@H]3CN(C)C[C@@H]3F)n(Cc3ccc(-c4nc(C(F)(F)F)cn4C)cc3)c2n1 [Example 217, 2-(4-cyclopropyl-6-methoxypyrimidin-5-yl)-N-((3R,4S)-4-fluoro-1-methylpyrrolidin-3-yl)-7-(4-(1-methyl-4-(trifluoromethyl)-1H-imidazol-2-yl)benzyl) -7H-pyrrolo[2,3-d]pyrimidine-6-carboxamide]",< 100
> 5,"COc1ncnc(C2CC2)c1-c1ncc2cc(C(=O)N3CC(N)C3)n(Cc3ccc(-c4nc(C(F)(F)F)cn4C(C)C)cc3)c2n1 [Example 99, (3-aminoazetidin-1-yl)(2-(4-cyclopropyl-6-methoxypyrimidin-5-yl)-7-(4-(1-isopropyl-4-(trifluoromethyl)-1H-imidazol-2-yl)benzyl)-7H-pyrrolo[2,3-d]pyrimidin-6-yl)methanone]",< 100
> 5,"COc1ncnc(C2CC2)c1-c1ncc2cc(C(=O)N[C@@H]3CCN(C)C3)n(Cc3ccc(-c4nc(C(F)(F)F)cn4C)cc3)c2n1 [Example 169, (R) -2-(4-cyclopropyl-6-methoxypyrimidin-5-yl)-7-(4-(1-methyl-4-(trifluoromethyl)-1H-imidazol-2-yl)benzyl)-N-(1-methylpyrrolidin-3-yl)-7H-pyrrolo[2,3-d]pyrimidine-6-carboxamide]",< 100
> 5,"COc1ncnc(C2CC2)c1-c1ncc2cc(C(=O)NCCN)n(Cc3ccc(-c4nc(C(F)(F)F)cn4C(C)C)cc3)c2n1 [Example 100, N-(2-aminoethyl)-2-(4-cyclopropyl-6-methoxypyrimidin-5-yl)-7-(4-(1-isopropyl-4-(trifluoromethyl)-1H-imidazol-2-yl)benzyl)-7H-pyrrolo[2,3-d]pyrimidine-6-carboxamide]",100 to 500
> 5,"COc1ncnc(C2CC2)c1-c1ncc2cc(C(=O)NC[C@H](C)OC)n(Cc3ccc(-c4nc(C(F)(F)F)cn4C(C)C)cc3)c2n1 [Example 135, (S)-2-(4-cyclopropyl-6-methoxypyrimidin-5-yl)-7-(4-(1-isopropyl-4-(trifluoromethyl)-1H-imidazol-2-yl)benzyl)-N-(2-methoxypropyl) -7H-pyrrolo[2,3-d]pyrimidine-6-carboxamide]",< 100
> 5,"CNC(=O)c1cc2cnc(-c3c(OC)ncnc3C3CC3)nc2n1Cc1ccc(-c2nc(C(F)(F)F)c3n2CCCC3)cc1 [Example 200, 2-(4-cyclopropyl-6-methoxypyrimidin-5-yl)-N-methyl-7-(4-(1-(trifluoromethyl) -5,6,7,8-tetrahydroimidazo[1,5-a]pyridin-3-yl)benzyl)-7H-pyrrolo[2,3-d]pyrimidine-6-carboxamide]",< 100
> 5,"COc1ncnc(C2CC2)c1-c1ncc2cc(C(=O)NC3CCN(CC(C)(C)F)CC3)n(Cc3ccc(-c4nc(C(F)(F)F)cn4C(C)C)cc3)c2n1 [Example 126, 2-(4-cyclopropyl-6-methoxypyrimidin-5-yl)-N-(1-(2-fluoro-2-methylpropyl)piperidin-4-yl)-7-(4-(1-isopropyl-4-(trifluoromethyl)-1H-imidazol-2-yl)benzyl)-7H-pyrrolo[2,3-d]pyrimidine-6-carboxamide]",< 100
> 5,"CNC(=O)c1cc2cnc(-c3c(OC)ncnc3C3CC3)nc2n1Cc1ccc(-c2nc(C(F)(F)F)cn2C)cc1 [Example 43, 2-(4-cyclopropyl-6-methoxypyrimidin-5-yl)-N-methyl-7-(4-(1-methyl-4-(trifluoromethyl)-1H-imidazol-2-yl)benzyl)-7H-pyrrolo[2,3-d]pyrimidine-6-carboxamide]",< 100
> 5,"COc1ncnc(C2CC2)c1-c1ncc2cc(C(=O)N3C[C@H]4C[C@@H]3CO4)n(Cc3ccc(-c4nc(C(F)(F)F)cn4C(C)C)cc3)c2n1 [Example 65, ((1R,4R)-2-oxa-5-azabicyclo[2.2 .1]heptan-5-yl)(2-(4-cyclopropyl-6-methoxypyrimidin-5-yl)-7-(4-(1-isopropyl-4-(trifluoromethyl)-1H-imidazol-2-yl)benzyl)-7H-pyrrolo[2,3-d]pyrimidin-6-yl)methanone]",100 to 500
> 5,"COc1ncnc(C2CC2)c1-c1ncc2cc(C(=O)N[C@H]3CCN(C)C3)n(Cc3ccc(-c4nc(C(F)(F)F)cn4C)cc3)c2n1 [Example 173, (S)-2-(4-cyclopropyl-6-methoxypyrimidin-5-yl)-7-(4-(1-methyl-4-(trifluoromethyl)-1H-imidazol-2-yl)benzyl)-N-(1-methylpyrrolidin-3-yl)-7H-pyrrolo[2,3-d]pyrimidine-6-carboxamide]",< 100
> 5,"COc1ncnc(C2CC2)c1-c1ncc2cc(C(=O)N(C)C)n(Cc3ccc(-c4nc(C(F)(F)F)cn4C)cc3)c2n1 [Example 204, 2-(4-cyclopropyl-6-methoxypyrimidin-5-yl)-N,N-dimethyl-7-(4-(1-methyl-4-(trifluoromethyl)-1H-imidazol-2-yl)benzyl)-7H-pyrrolo[2,3-d]pyrimidine-6-carboxamide]",< 100
> 5,"CC[C@H](C)NC(=O)c1cc2cnc(-c3c(OC)ncnc3C3CC3)nc2n1Cc1ccc(-c2nc(C(F)(F)F)cn2C(C)C)cc1 [Example 82, (S)-N-(sec-butyl)-2-(4-cyclopropyl-6-methoxypyrimidin-5-yl)-7-(4-(1-isopropyl-4-(trifluoromethyl)-1H-imidazol-2-yl)benzyl)-7H-pyrrolo[2,3-d]pyrimidine-6-carboxamide]",< 100
> 5,"COc1ncnc(C2CC2)c1-c1ncc2cc(C(=O)NCCC3CC(F)(F)C3)n(Cc3ccc(-c4nc(C(F)(F)F)cn4C(C)C)cc3)c2n1 [Example 90, 2-(4-cyclopropyl-6-methoxypyrimidin-5-yl)-N-(2-(3,3-difluorocyclobutyl)ethyl)-7-(4-(1-isopropyl-4-(trifluoromethyl)-1H-imidazol-2-yl)benzyl)-7H-pyrrolo[2,3-d]pyrimidine-6-carboxamide]",< 100
> 5,"COc1ncnc(C2CC2)c1-c1ncc2cc(C(=O)N3CC(F)(F)C3)n(Cc3ccc(-c4nc(C(F)(F)F)cn4C(C)C)cc3)c2n1 [Example 40, (2-(4-cyclopropyl-6-methoxypyrimid in-5-yl)-7-(4-(1-isopropyl-4-(trifluoromethyl)-1H-imidazol-2-yl)benzyl)-7H-pyrrolo[2,3-d]pyrimidin-6-yl) (3,3-difluoroazetid in-1-yl)methanone]",100 to 500
> 5,"COc1ncnc(C2CC2)c1-c1ncc2cc(C(=O)N3CCC3)n(Cc3ccc(-c4nc(C(F)(F)F)cn4C(C)C)cc3)c2n1 [Example 18, azetidin-1-yl(2-(4-cyclopropyl-6-methoxypyrimidin-5-yl)-7-(4-(1-isopropyl-4-(trifluoromethyl)-1H-imidazol-2-yl)benzyl)-7H-pyrrolo[2,3-d]pyrimidin-6-yl)methanone]",< 100
> 5,"COc1ncnc(C2CC2)c1-c1ncc2cc(C(=O)N[C@H]3CCN(C)C3)n(Cc3ccc(-c4nc(C(F)(F)F)cn4C(C)C)cc3)c2n1 [Example 174, (S)-2-(4-cyclopropyl-6-methoxypyrimidin-5-yl)-7-(4-(1-isopropyl-4-(trifluoromethyl)-1H-imidazol-2-yl)benzyl)-N-(1-methylpyrrolidin-3-yl)-7H-pyrrolo[2,3-d]pyrimidine-6-carboxamide]",< 100

# — patent EP4806898A1, “HETEROARYL DERIVATIVE COMPOUND AND USE THEREOF” (Voronoi Inc., priority 2023, dated 2025)
